Experimental data published in patent publication US20110160196A1, “FACTOR XA INHIBITORS” (Millennium Pharmaceuticals, Inc., priority 2007, published 2011).

target: T1, human plasma protein factor Xa (Homo sapiens, UniProt P00742); assay: Factor Xa IC50 determination (cleavage of paranitroanilide substrate S-2765); format: biochemical; details: factor Xa 1 nM, S-2765 100 μM, Tris buffered saline pH 7.4, read at 405 nm
T1 construct: The human plasma protein factor Xa was purchased; purchased Haematologic Technologies (Essex Junction, Vt.); host or cells: human plasma
Source text: This example illustrates methods for evaluating the compounds of the invention, along with results obtained for such assays. The in vitro and in vivo human Factor Xa activities of the inventive compounds can be determined by various procedures known in the art, such as a test for their ability to inhibit the activity of human plasma Factor Xa. […] The IC50 value is the concentration (in nM) of the compound required to provide 50% inhibition of human Factor Xa proteolytic activity.
An in vitro assay for detecting and measuring inhibition activity against Factor Xa is as follows:
The substrate S-2765 (Z-D-Arg-Gly-Arg-pNA.HCl) was obtained from Diapharma (West Chester, Ohio).
The human plasma protein factor Xa was purchased from Haematologic Technologies (Essex Junction, Vt.).
All assays, which are performed in 96-well microtiter plates, measure proteolytic activity of the enzyme (factor Xa) by following cleavage of a paranitroanilide peptide substrate. The assay buffer used for proteolytic assays was Tris buffered saline (20 mM Tris, 150 mM NaCl, 5 mM CaCl2, 0.1% Bovine serum albumin (BSA), 5% Dimethly Sulfoxide (DMSO) pH 7.4). In a 96-well microtiter plate, inhibitor was serially diluted to give a range of final concentrations from 0.01 nM to 10 μM. Duplicate sets of wells were assayed and control wells without inhibitor were included. Enzyme was added to each well, (factor Xa concentration=1 nM), the plate was shaken for 5 seconds and then incubated for 5 minutes at room temperature. S-2765 was added (100 μM final) and the plate was shaken for 5 seconds (final volume in each well was 200 μl). The degree of substrate hydrolysis was measured at 405 nm on a Thermomax plate reader (Molecular Devices, Sunnyvale, Calif.) for 2 minutes. The initial velocities of substrate cleavage (mOD/min), for each range of inhibitor concentrations, were fitted to a four parameter equation using Softmax data analysis software. The parameter C, derived from the resulting curve-fit, corresponded to the concentration for half maximal inhibition (IC50).

T1 sequence (P00742 235-488 limits assumed): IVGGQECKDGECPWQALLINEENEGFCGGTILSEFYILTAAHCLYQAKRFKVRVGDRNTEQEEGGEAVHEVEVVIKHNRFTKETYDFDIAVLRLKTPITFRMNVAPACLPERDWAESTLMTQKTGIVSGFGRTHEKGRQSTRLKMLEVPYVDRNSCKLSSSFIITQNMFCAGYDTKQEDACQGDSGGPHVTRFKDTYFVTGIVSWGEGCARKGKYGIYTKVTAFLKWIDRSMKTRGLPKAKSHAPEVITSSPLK
T1 sequence (P00742 41-179 partner limits assumed): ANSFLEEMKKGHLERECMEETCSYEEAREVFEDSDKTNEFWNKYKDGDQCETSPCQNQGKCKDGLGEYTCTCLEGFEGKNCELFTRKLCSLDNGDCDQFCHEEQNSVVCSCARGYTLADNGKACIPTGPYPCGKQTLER

Compound | IC50
CNc1cc(-n2ccccc2=O)ccc1-n1cc(CNC(=O)c2ccc(Cl)s2)nn1 [Compound 1, 5-Chloro-N-((1-(2-(methylamino)-4-(2-oxopyridin-1(2H)-yl)phenyl)-1H-1,2,3-triazol-4-yl)methyl)thiophene-2-carboxamide] | ≤ 0.1 µM
CN(C)c1cc(-n2ccccc2=O)ccc1-n1cc(CNC(=O)c2ccc(Cl)s2)nn1 [Compound 2, 5-Chloro-N-((1-(2-(dimethylamino)-4-(2-oxopyridin-1(2H)-yl)phenyl)-1H-1,2,3-triazol-4-yl)methyl)thiophene-2-carboxamide] | ≤ 0.1 µM
O=C(NCc1cn(-c2ccc(-n3ccccc3=O)cc2N2CCCC2)nn1)c1ccc(Cl)s1 [Compound 3, 5-Chloro-N-((1-(4-(2-oxopyridin-1(2H)-yl)-2-(pyrrolidin-1-yl)phenyl)-1H-1,2,3-triazol-4-yl)methyl)thiophene-2-carboxamide] | ≤ 0.1 µM
O=C(NCc1cn(-c2ccc(-n3ccccc3=O)cc2N2CCCCC2)nn1)c1ccc(Cl)s1 [Compound 4, 5-Chloro-N-((1-(4-(2-oxopyridin-1(2H)-yl)-2-(piperidin-1-yl)phenyl)-1H-1,2,3-triazol-4-yl)methyl)thiophene-2-carboxamide] | ≤ 0.1 µM
O=C(NCc1cn(-c2ccc(-n3ccccc3=O)cc2N2CCOCC2)nn1)c1ccc(Cl)s1 [Compound 5, 5-Chloro-N-((1-(2-morpholino-4-(2-oxopyridin-1(2H)-yl)phenyl)-1H-1,2,3-triazol-4-yl)methyl)thiophene-2-carboxamide] | ≤ 0.1 µM
O=C1CN(c2cc(-n3ccccc3=O)ccc2-n2cc(CNC(=O)c3ccc(Cl)s3)nn2)CCN1 [Compound 6, 5-Chloro-N-((1-(2-(3-oxopiperazin-1-yl)-4-(2-oxopyridin-1(2H)-yl)phenyl)-1H-1,2,3-triazol-4-yl)methyl)thiophene-2-carboxamide] | ≤ 0.1 µM
O=C(NCc1cn(-c2ccc(-n3ccccc3=O)cc2N2CCSCC2)nn1)c1ccc(Cl)s1 [Compound 10, 5-Chloro-N-((1-(4-(2-oxopyridin-1(2H)-yl)-2-thiomorpholinophenyl)-1H-1,2,3-triazol-4-yl)methyl)thiophene-2-carboxamide] | ≤ 0.1 µM
O=C(NCc1cn(-c2ccc(-n3ccccc3=O)cc2N2CC[S+]([O-])CC2)nn1)c1ccc(Cl)s1 [Compound 11, 5-Chloro-N-((1-(4-(2-oxopyridin-1(2H)-yl)-2-((1-oxo-)thiomorpholino)phenyl)-1H-1,2,3-triazol-4-yl)methyl)thiophene-2-carboxamide] | ≤ 0.1 µM
O=C(NCc1cn(-c2ccc(-n3ccccc3=O)cc2N2CCS(=O)(=O)CC2)nn1)c1ccc(Cl)s1 [Compound 12, 5-Chloro-N-((1-(4-(2-oxopyridin-1(2H)-yl)-2-((1,1-dioxo-)thiomorpholino)phenyl)-1H-1,2,3-triazol-4-yl)methyl)thiophene-2-carboxamide] | ≤ 0.1 µM
CC(=O)N1CCN(c2cc(-n3ccccc3=O)ccc2-n2cc(CNC(=O)c3ccc(Cl)s3)nn2)CC1 [Compound 13, N-((1-(2-(4-Acetylpiperazin-1-yl)-4-(2-oxopyridin-1(2H)-yl)phenyl)-1H-1,2,3-triazol-4-yl)methyl)-5-chlorothiophene-2-carboxamide] | ≤ 0.1 µM
CC(=N)N1CCN(c2cc(-n3ccccc3=O)ccc2-n2cc(CNC(=O)c3ccc(Cl)s3)nn2)CC1 [Compound 14, 5-Chloro-N-((1-(2-(4-(1-iminoethyl)piperazin-1-yl)-4-(2-oxopyridin-1(2H)-yl)phenyl)-1H-1,2,3-triazol-4-yl)methyl)thiophene-2-carboxamide] | ≤ 0.1 µM
NC(=O)N1CCN(c2cc(-n3ccccc3=O)ccc2-n2cc(CNC(=O)c3ccc(Cl)s3)nn2)CC1 [Compound 15, 4-(2-(4-((2-Chlorothiophene-5-carboxamido)methyl)-1H-1,2,3-triazol-1-yl)-5-(2-oxopyridin-1(2H)-yl)phenyl)piperazine-1-carboxamide] | ≤ 0.1 µM
CN(C)C1CCN(c2cc(-n3ccccc3=O)ccc2-n2cc(CNC(=O)c3ccc(Cl)s3)nn2)CC1 [Compound 16, 5-Chloro-N-((1-(2-(4-(dimethylamino)piperidin-1-yl)-4-(2-oxopyridin-1(2H)-yl)phenyl)-1H-1,2,3-triazol-4-yl)methyl)thiophene-2-carboxamide] | ≤ 0.1 µM
NC1CCN(c2cc(-n3ccccc3=O)ccc2-n2cc(CNC(=O)c3ccc(Cl)s3)nn2)CC1 [Compound 17, N-((1-(2-(4-Aminopiperidin-1-yl)-4-(2-oxopyridin-1(2H)-yl)phenyl)-1H-1,2,3-triazol-4-yl)methyl)-5-chlorothiophene-2-carboxamide] | ≤ 0.1 µM
CC(=O)NC1CCN(c2cc(-n3ccccc3=O)ccc2-n2cc(CNC(=O)c3ccc(Cl)s3)nn2)CC1 [Compound 18, N-((1-(2-(4-Acetamidopiperidin-1-yl)-4-(2-oxopyridin-1(2H)-yl)phenyl)-1H-1,2,3-triazol-4-yl)methyl)-5-chlorothiophene-2-carboxamide] | ≤ 0.1 µM
NC(=O)NC1CCN(c2cc(-n3ccccc3=O)ccc2-n2cc(CNC(=O)c3ccc(Cl)s3)nn2)CC1 [Compound 20, 1-(1-(2-(4-((2-Chlorothiophene-5-carboxamido)methyl)-1H-1,2,3-triazol-1-yl)-5-(2-oxopyridin-l(2H)-yl)phenyl)piperidin-4-yl)urea] | ≤ 0.1 µM
O=C(NCc1cn(-c2ccc(-n3ccccc3=O)cc2N2CCC(O)CC2)nn1)c1ccc(Cl)s1 [Compound 21, 5-Chloro-N-((1-(2-(4-hydroxypiperidin-1-yl)-4-(2-oxopyridin-1(2H)-yl)phenyl)-1H-1,2,3-triazol-4-yl)methyl)thiophene-2-carboxamide] | ≤ 0.1 µM
O=C(NCc1cn(-c2ccc(-n3ccccc3=O)cc2N2CCC[C@@H](O)C2)nn1)c1ccc(Cl)s1 [Compound 22, 5-Chloro-N-((1-(2-((R)-3-hydroxypiperidin-1-yl)-4-(2-oxopyridin-1(2H)-yl)phenyl)-1H-1,2,3-triazol-4-yl)methyl)thiophene-2-carboxamide] | ≤ 0.1 µM
O=C(NCc1cn(-c2ccc(-n3ccccc3=O)cc2N2CCC[C@H](O)C2)nn1)c1ccc(Cl)s1 [Compound 23, 5-Chloro-N-((1-(2-((S)-3-hydroxypiperidin-1-yl)-4-(2-oxopyridin-1(2H)-yl)phenyl)-1H-1,2,3-triazol-4-yl)methyl)thiophene-2-carboxamide] | ≤ 0.1 µM
O=C(NCc1cn(-c2ccc(-n3ccccc3=O)cc2N2CCC(C(=O)O)CC2)nn1)c1ccc(Cl)s1 [Compound 24, 1-(2-(4-((2-Chlorothiophene-5-carboxamido)methyl)-1H-1,2,3-triazol-1-yl)-5-(2-oxopyridin-1(2H)-yl)phenyl)piperidine-4-carboxylic acid] | ≤ 0.1 µM
NC(=O)C1CCN(c2cc(-n3ccccc3=O)ccc2-n2cc(CNC(=O)c3ccc(Cl)s3)nn2)CC1 [Compound 25, 1-(2-(4-((2-Chlorothiophene-5-carboxamido)methyl)-1H-1,2,3-triazol-1-yl)-5-(2-oxopyridin-1(2H)-yl)phenyl)piperidine-4-carboxamide] | ≤ 0.1 µM
O=C(NCc1cn(-c2ccc(-n3ccccc3=O)cc2NCCO)nn1)c1ccc(Cl)s1 [Compound 26, 5-Chloro-N-((1-(2-(2-hydroxyethylamino)-4-(2-oxopyridin-1(2H)-yl)phenyl)-1H-1,2,3-triazol-4-yl)methyl)thiophene-2-carboxamide] | ≤ 0.1 µM
CN(CCO)c1cc(-n2ccccc2=O)ccc1-n1cc(CNC(=O)c2ccc(Cl)s2)nn1 [Compound 28, 5-Chloro-N-((1-(2-((2-hydroxyethyl)(methyl)amino)-4-(2-oxopyridin-1(2H)-yl)phenyl)-1H-1,2,3-triazol-4-yl)methyl)thiophene-2-carboxamide] | ≤ 0.1 µM
COCCN(C)c1cc(-n2ccccc2=O)ccc1-n1cc(CNC(=O)c2ccc(Cl)s2)nn1 [Compound 29, 5-Chloro-N-((1-(2-((2-mcthoxyethyl)(methyl)amino)-4-(2-oxopyridin-1(2H)-yl)phenyl)-1H-1,2,3-triazol-4-yl)methyl)thiophene-2-carboxamide] | ≤ 0.1 µM
NCCNc1cc(-n2ccccc2=O)ccc1-n1cc(CNC(=O)c2ccc(Cl)s2)nn1 [Compound 30, N-((1-(2-(2-Aminoethylamino)-4-(2-oxopyridin-1(2H)-yl)phenyl)-1H-1,2,3-triazol-4-yl)methyl)-5-chlorothiophene-2-carboxamide] | ≤ 0.1 µM
O=C(NCc1cn(-c2ccc(-n3ccccc3=O)cc2-n2ccnc2)nn1)c1ccc(Cl)s1 [Compound 42, N-((1-(2-(1H-Imidazol-1-yl)-4-(2-oxopyridin-1(2H)-yl)phenyl)-1H-1,2,3-triazol-4-yl)methyl)-5-chlorothiophene-2-carboxamide] | ≤ 0.1 µM
